The values below come from patent EP0394314B2, “MULTIPLE STEP ENTRAPMENT/LOADING PROCEDURE FOR PREPARING […]-[…]” (VESTAR, INC., priority 1987, dated 1989).

Series [1] is described as follows: Maximum tolerated dose of a single intravenous dose. To be noted: mouse, in vivo, CD2F1 mice, vesicles normalized to the hydrochloride, read-out: maximum tolerated dose (MTD, non-lethal). The procedure:
This compares to an MTD of about 40 mg/kg (normalized to the hydrochloride) for doxorubicin vesicles prepared as described in Example III. In contrast, the MTD for doxorubicin vesicles, when prepared as described in Example III with the exception that citric acid was substituted for lactobionic acid, was only about 10 mg/kg, less than the MTD for the free drug.

Series [2] deals with White blood cell (w.b.c.) counts. Description: White blood cell counts after doxorubicin treatment. Type of series: in vivo, CD2F1 mice. To be noted: doxorubicin dose 40 mg/kg (for the equivalent hydrochloride); four days post therapy. The procedure: White blood cell (w.b.c.) counts were performed on CD2F1 mice receiving doxorubicin doses of 40 mg/kg (for the equivalent hydrochloride). Mice receiving free drug experienced severe depression in w.b.c. counts: at four days post therapy, counts were only 8.5% of pretherapy values. In contrast, mice treated with doxorubicin vesicles prepared in accordance with this invention (Example III) at the same doxorubicin dosage experienced only moderate suppression in w.b.c. counts: at four days post therapy, counts were 75% of pretherapy values.

A short description of series [3]: Toxicity of doxorubicin vesicles versus free drug, intravenous tests in mice. Type of series: in vivo. To be noted: 20 mg/kg or equivalent dose. The source says:
In nearly all instances of vesicle-entrapped doxorubicin reported in the literature, the loaded vesicles are less toxic than the free drug.
Doxorubicin vesicles can also be prepared with citric acid.

Where a name gives a salt, the structure may show the parent alone.

The term MTD denotes the largest dose that counted as tolerated. Turning to `COc1cccc2c1C(=O)c1c(O)c3c(c(O)c1C2=O)C[C@@](O)(C(=O)CO)C[C@@H]3O[C@H]1C[C@H](N)[C@H](O)[C@H](C)O1` [doxorubicin hydrochloride], the MTD in series [1] was approximately 25 mg/kg. For the same molecule, the “w.b.c. counts, % of pretherapy values” in series [2] is recorded as 8.5%. Also, in series [3], the tolerance of dose entry is “tolerated”.
